Source: patent US20140288056A1, “METHODS FOR NON-TOXIC TREATMENT FOR DRUG WITHDRAWAL” (DEMERX, INC., priority 2013, published 2014)

Columns and labels:
[1] = Plasma toxicokinetics in dogs, 14 day repeat dose study; assay type: in vivo, dog
Method: Noribogaine HCl was administered to groups of 4 male and 4 female dogs by single oral gavage daily for 14 days at doses of 0, 0.5, 1.0 and 5.0 mg/kg/day. An additional group of 4 male and 4 female dogs received either the vehicle control or 5.0 mg/kg/day for 14 days and were held for an additional 28 days after cessation of dosing to assess recovery from any potential drug-induced changes. The study was conducted under GLP guidelines and included comprehensive examinations of clinical signs, body weight, clinical pathology parameters, ophthalmologic examinations, ECG recordings and analyses of plasma for bioanalytical measurement of drug levels at appropriate intervals during the study. At the termination of the dosing phase and at the termination of the recovery phase, all dogs were subjected to a complete post-mortem examination including gross examination of major organs and histologic examination of an extensive list of tissues. Additional sections of brain were obtained from cerebrum, cerebellus, brain stem and spinal cord and examined histologically to evaluate potential effects on brain histopathology. In addition, these sections were examined with immunohistochemical stains for GFAP for evidence of gliosis and Calbindin for a more comprehensive examination of cerebellar Purkinje cells.

[2] = test system: dogs; assay: Acute oral toxicity/TK study in dogs; assay type: in vivo, dog
[3] = test system: drug-seeking behavior; assay: Animal studies in various addiction models; assay type: in vivo
[4] = test system: psychotomimetic effects; assay: Evaluation of psychotomimetic effects in an animal model; assay type: in vivo
[5] = Human pharmacokinetic study, single oral dose, fasting healthy volunteers; assay type: in vivo; settings: fasting, serum
Method: In double blind studies, fasting healthy volunteers (6 per cohort) were treated once orally with a tablet of noribogaine HCl. In escalating cohorts, the volunteers received 3 mg, 10 mg, 30 mg or 60 mg noribogaine.

[6] = test system: cynomolgus monkey; assay: Single dose toxicity in cynomolgus monkeys, oral gavage; assay type: in vivo
Method: The objective of the study was to determine the toxicity and toxicokinetic profile of noribogaine following oral (gavage) administration to the cynomolgus monkey. The test article was administered as follows in Table 1:
Parameters monitored on the study included: mortality, clinical signs and body weights. Blood samples were collected for TK evaluation. […] The single dose maximum tolerated dose (MTD) was determined to be greater than 160 mg/kg based on the parameters monitored during the study.

[7] = test system: various animal species; assay: Pre-clinical toxicity studies in various animal species; assay type: in vivo
Source text: Given the signs of efficacy that noribogaine has shown, there is a need for a method to administer noribogaine in dosages that provide efficacy without leading to any significant deleterious clinical signs.

[8] = female dogs, Gr 2 0.5 mg/kg, D 1
[9] = female dogs, Gr 2 0.5 mg/kg, D 14
[10] = female dogs, Gr 3 1.0 mg/kg, D 1
[11] = female dogs, Gr 3 1.0 mg/kg, D 14
[12] = female dogs, Gr 4 5.0 mg/kg, D 1
[13] = female dogs, Gr 4 5.0 mg/kg, D 14
[14] = male dogs, Gr 2 0.5 mg/kg, D 14
[15] = male dogs, Gr 3 1.0 mg/kg, D 14
[16] = male dogs, Gr 4 5.0 mg/kg, D 14

## CC[C@H]1C[C@H]2C[C@H]3c4[nH]c5ccc(O)cc5c4CCN(C2)[C@@H]13 [noribogaine]
[1]; [8]
  AUC0-24 h: 40.4 ng·h/mL
  AUC0-last: 31.5 ng·h/mL
  AUC0-∞: 44.9 ng·h/mL
  Cmax: 25.3 ng/mL
  T1/2: 1.0 h
  Tmax: 0.5 h
[1]; [9]
  AUC0-24 h: 55.0 ng·h/mL
  AUC0-last: 35.4 ng·h/mL
  AUC0-∞: 45.7 ng·h/mL
  Cmax: 29.8 ng/mL
  T1/2: 1.1 h
  Tmax: 1.0 h
[1]; [10]
  AUC0-24 h: 176.2 ng·h/mL
  AUC0-last: 148.9 ng·h/mL
  AUC0-∞: 165.3 ng·h/mL
  Cmax: 68.5 ng/mL
  T1/2: 1.4 h
  Tmax: 0.8 h
[1]; [11]
  AUC0-24 h: 203.7 ng·h/mL
  AUC0-last: 169.0 ng·h/mL
  AUC0-∞: 197.0 ng·h/mL
  Cmax: 74.1 ng/mL
  T1/2: 1.6 h
  Tmax: 0.5 h
[1]; [12]
  AUC0-24 h: 3367.9 ng·h/mL
  AUC0-last: 3367.9 ng·h/mL
  AUC0-∞: 3425.7 ng·h/mL
  Cmax: 691 ng/mL
  T1/2: 4.3 h
  Tmax: 0.6 h
[1]; [13]
  AUC0-24 h: 5951.2 ng·h/mL
  AUC0-last: 5951.2 ng·h/mL
  AUC0-∞: 6283.2 ng·h/mL
  Cmax: 683 ng/mL
  T1/2: 5.7 h
  Tmax: 0.6 h
[1]; male dogs, Gr 2 0.5 mg/kg, D 1
  AUC0-24 h: 59.7 ng·h/mL
  AUC0-last: 46.6 ng·h/mL
  AUC0-∞: 67.8 ng·h/mL
  Cmax: 28.8 ng/mL
  T1/2: 1.3 h
  Tmax: 0.7 h
[1]; [14]
  AUC0-24 h: 64.5 ng·h/mL
  AUC0-last: 53.2 ng·h/mL
  AUC0-∞: 68.2 ng·h/mL
  Cmax: 29.4 ng/mL
  T1/2: 1.3 h
  Tmax: 0.7 h
[1]; male dogs, Gr 3 1.0 mg/kg, D 1
  AUC0-24 h: 119.8 ng·h/mL
  AUC0-last: 102.5 ng·h/mL
  AUC0-∞: 120.8 ng·h/mL
  Cmax: 58.6 ng/mL
  T1/2: 1.2 h
  Tmax: 0.9 h
[1]; [15]
  AUC0-24 h: 210.4 ng·h/mL
  AUC0-last: 172.3 ng·h/mL
  AUC0-∞: 195.7 ng·h/mL
  Cmax: 67.6 ng/mL
  T1/2: 1.8 h
  Tmax: 0.8 h
[1]; male dogs, Gr 4 5.0 mg/kg, D 1
  AUC0-24 h: 3515.0 ng·h/mL
  AUC0-last: 3515.0 ng·h/mL
  AUC0-∞: 3630.5 ng·h/mL
  Cmax: 693 ng/mL
  T1/2: 4.7 h
  Tmax: 0.6 h
[1]; [16]
  AUC0-24 h: 6403.3 ng·h/mL
  AUC0-last: 6403.3 ng·h/mL
  AUC0-∞: 6961.4 ng·h/mL
  Cmax: 716 ng/mL
  T1/2: 6.5 h
  Tmax: 0.9 h
[2]; 5 mg/kg oral
  Findings at the NOAEL dose: only transient reduction in food consumption in one dog
[2]; 10 mg/kg oral
  Convulsions and other CNS-related clinical signs: occurred
  Onset of convulsions and CNS-related clinical signs after dosing: 20 min
[2]; 5 (n=2) or 10 (n=2) mg/kg oral
  Mortality: no mortality occurred
[2]; single oral dose
  NOAEL: 5 mg/kg
[3]
  Drug-seeking behavior: significantly reduced
[4]
  Psychotomimetic effects: no activity
[5]; single dose 3 mg
  mean AUC/24 hr: 3.1 ng/mL
  mean Cmax: 5.2 ng/mL
[5]; single dose 10 mg
  mean AUC/24 hr: 10.6 ng/mL
  mean Cmax: 14.5 ng/mL
[5]; single dose 30 mg
  mean AUC/24: 29.2 ng/mL
  mean Cmax: 55.9 ng/mL
[5]; single dose 60 mg
  mean AUC/24: 61 ng/mL
  mean Cmax: 116 ng/mL
[6]
  Single dose maximum tolerated dose (MTD): greater than 160 mg/kg
[6]; doses up to and including 160 mg/kg
  Mortality or treatment related clinical signs: No mortality or treatment related clinical signs were noted
[7]
  Toxic effects of high doses: convulsions and other CNS-related clinical signs, respiratory arrest and death
